Literature values, collected in PMC10011554, “BET inhibitor trotabresib in heavily pretreated patients with solid tumors and diffuse large B-cell lymphomas” (Nature Communications, 2023).
Read-outs that look alike come from different tables or passages of the source.

Tests used:
[1] = system: relapsed or refractory lymphomas; details: cited from earlier work
U-2932 (ABC DLBCL) = system: U-2932 (ABC DLBCL); set-up: method as in Report CC-90010-Pharm-1018; details: U-2932, Table 2, ref Report CC-90010-Pharm-1018; read-out: absolute IC50, proliferation; cited from earlier work
OCI-LY-10 (DOX-R) = system: OCI-LY-10 (DOX-R); set-up: method as in Report CC-90010-Pharm-1018; details: Table 2, ref Report CC-90010-Pharm-1018, read-out: absolute IC50, proliferation; cited from earlier work
WSU-DLCL2 (DOX-R) = system: WSU-DLCL2 (DOX-R); set-up: method as in Report CC-90010-Pharm-1018; details: Table 2, ref Report CC-90010-Pharm-1018, read-out: absolute IC50, proliferation; cited from earlier work
SU-DHL-4 (DOX-R) = system: SU-DHL-4 (DOX-R); set-up: method as in Report CC-90010-Pharm-1018; details: Table 2, ref Report CC-90010-Pharm-1018, read-out: absolute IC50, proliferation; cited from earlier work
SU-DHL-4 (GCB DLBCL) = system: SU-DHL-4 (GCB DLBCL); set-up: method as in Report CC-90010-Pharm-1018; details: SU-DHL-4, Table 2, ref Report CC-90010-Pharm-1018; read-out: absolute IC50, proliferation; cited from earlier work
WSU-DLCL2 (GCB DLBCL) = system: WSU-DLCL2 (GCB DLBCL); set-up: method as in Report CC-90010-Pharm-1018; details: WSU-DLCL2, Table 2, ref Report CC-90010-Pharm-1018; read-out: absolute IC50, proliferation; cited from earlier work
OCI-LY-10 (ABC DLBCL) = system: OCI-LY-10 (ABC DLBCL); set-up: method as in Report CC-90010-Pharm-1018; details: OCI-LY-10, Table 2, ref Report CC-90010-Pharm-1018; read-out: absolute IC50, proliferation; cited from earlier work
U-2932 (DOX-R) = system: U-2932 (DOX-R); set-up: method as in Report CC-90010-Pharm-1018; details: Table 2, ref Report CC-90010-Pharm-1018, read-out: absolute IC50, proliferation; cited from earlier work
[2] = set-up: method as in Amorim, 2016; details: ref Amorim, 2016; cited from earlier work
GBM3 GBM PDX = system: GBM3 GBM PDX; set-up: method as in Unpublished data from Celgene Corporation; details: GBM3, TMZ 50 mg/kg IP x 3 Q2 weeks alone, ref Unpublished data from Celgene Corporation; cited from earlier work
basal cell carcinoma = details: cited from earlier work
[3] = cited from earlier work
[4] = ref ODOMZO European Public Assessment Report

Cc1noc2c1-c1ccccc1C(c1ccc(Cl)cc1)=N[C@H]2CC(N)=O [CPI-0610]
objective responses ([1]; out of 64 relapsed or refractory lymphomas, ref Blum, 2018): 5 patients

COc1cccc2c1C(=O)c1c(O)c3c(c(O)c1C2=O)C[C@@](O)(C(=O)CO)C[C@@H]3O[C@H]1C[C@H](N)[C@H](O)[C@H](C)O1 [Doxorubicin, reference compound]
IC50 (U-2932 (ABC DLBCL)): 0.02 µM
IC50 (OCI-LY-10 (DOX-R)): 3.66 µM
IC50 (WSU-DLCL2 (DOX-R)): 3.27 µM
IC50 (SU-DHL-4 (DOX-R)): 3.57 µM
IC50 (SU-DHL-4 (GCB DLBCL)): ~0.01 µM
IC50 (WSU-DLCL2 (GCB DLBCL)): 0.01 µM
IC50 (OCI-LY-10 (ABC DLBCL)): 0.041 µM
IC50 (U-2932 (DOX-R)): 1.87 µM

Cc1sc2c(c1C)C(c1ccc(Cl)cc1)=N[C@@H](CC(=O)Nc1ccc(O)cc1)c1nnc(C)n1-2 [OTX-015]
Grade 3-4 thrombocytopenia [2]: 58%
median time to thrombocytopenia nadir (Grade 4) from starting treatment [2]: 18 days
toxic effect anaemia [2]: 91%
toxic effect diarrhea [2]: 47%
toxic effect fatigue [2]: 27%
toxic effect nausea [2]: 24%
toxic effect neutropenia [2]: 51%
toxic effect thrombocytopenia [2]: 96%

Cc1sc2c(c1C)C(c1ccc(Cl)cc1)=N[C@@H](CC(=O)NCCCN1CCN(C)CC1)c1nnc(C)n1-2 [RG6146]
ORR ([1]; relapsed/refractory MYC-expressing DLBCL patients, ref Caimi, 2017): 11%

Cn1nnc2c(C(N)=O)ncn2c1=O [TMZ, temozolomide, reference compound]
TGI (GBM3 GBM PDX): 3%

Cc1c(C(=O)Nc2ccc(N3C[C@@H](C)O[C@@H](C)C3)nc2)cccc1-c1ccc(OC(F)(F)F)cc1 [sonidegib]
independently reviewed response rate (basal cell carcinoma; locally advanced BCC, ref Migden, 2015a): 58%
LaBCC with investigator-assessed responses lasting at least six months (basal cell carcinoma; ref Migden, 2015a): 39%
subjects discontinued for adverse reactions [3, 4]: 28%
subjects with dose adjustments for adverse reactions [3, 4]: 32%

CS(=O)(=O)c1ccc(C(=O)Nc2ccc(Cl)c(-c3ccccn3)c2)c(Cl)c1 [vismodegib]
response rate (basal cell carcinoma; locally advanced BCC, ref ERIVEDGE European Public Assessment Report): 42.9%
independently reviewed response rate (basal cell carcinoma; metastatic BCC, ref ERIVEDGE European Public Assessment Report): 30.3%
median duration of response (basal cell carcinoma; ref ERIVEDGE European Public Assessment Report): 7.6 months
subjects who withdrew from treatment due to adverse events ([3]; at least 12 months follow up, ref Bassett-Seguin, 2015): 36%
